In patent US20260151431A1, “ACTIVATED STEM CELLS AND SYSTEMIC TREATMENT METHODS FOR INFECTED WOUNDS” (Colorado State University Research Foundation, priority 2015, published 2026):

Legend:
[1] = system: highly antibiotic-resistant strains of bacteria; assay: In vitro killing of highly antibiotic-resistant bacteria by activated MSC and antibiotic; type: cell-based; settings: triplicate cultures, assessed 4 h later; antibiotic at very high doses
Procedure: Using a similar experimental design as described in Example 9, supra, highly antibiotic-resistant strains of bacteria were incubated with activated MSC alone, antibiotics alone (cefazolin (cefa)), or antibiotics+activated MSC in triplicate cultures and bacterial killing assessed 4 h later.

inflammatory monocytes = type: in vivo, mice; settings: chronic S. aureus infected wounds; i.v. MSC; compared to untreated control animals
Procedure: Studies were done to investigate the impact of activated MSC on host immune responses, including monocyte, macrophage, and neutrophil responses. The numbers of monocytes migrating into wound tissues was determined by use of reporter mice whose inflammatory monocytes all expressed GFP. Wounds from S. aureus infected mice were immunostained for detection of inflammatory monocytes.

Row | Compound | bacterial killing [1] | number of monocytes infiltrating the wounds (inflammatory monocytes)
1 | Cc1nnc(SCC2=C(C(=O)O)N3C(=O)[C@@H](NC(=O)Cn4cnnn4)[C@H]3SC2)s1 [cefazolin] | little bacterial killing | –
2 | amoxicillin-clavulanic acid [antibiotics] | – | relatively sparse population of monocytes
